Assay results from patent US4264577A, “Contraceptive methods and compositions” (Eli Lilly and Company, priority 1980, dated 1981).

How the values were obtained:
[1] = Drug release rate in vitro from dimethylpolysiloxane rubber rod, Method B (water, methylene blue method); type: physicochemical; settings: rod 341.4 mg, 10% W/W
Protocol: A dimethylpolysiloxane rubber rod (3 cm. long, 3 mm. diameter) weighing 341.4 mg. and containing 10% (W/W) of dispersed sodium n-tetradecyl sulfate (prepared by Example 3, Method B, lot no. 225-1) is placed in a container and is covered with 10 ml. of water. The rod and the water are incubated together at 37° C. for a seven-day period, after which the water is removed. The sodium n-tetradecyl sulfate in the water is determined by the methylene blue method as described by K. Hiyashi, Analytical Biochemistry, 67, 503 (1975).
The above procedure may be repeated at 7-day intervals by adding fresh water to the rod after each removal of water for assay. Table 5, below, gives the results of a test performed as above-described for 140 days.

[2] = test system: cumulus oophorus of rabbit ova; test: Removal of cumulus oophorus from ova by hyaluronidase, in vitro; type: cell-based; settings: 10 μl. of 10 mg./ml. solution in 1 ml medium, 37° C.; sulfate
Protocol: In the absence of sodium n-tetradecyl sulfate, complete removal of the cumulus oophorus and zona pellucida is observed.
Female rabbits are given 100 units of pregnant mares serum (PMS), IM, and 134 units of HCG, IV. After 13 hours the animals are sacrificed, and the ovaries are excised. The ovaries are submerged in calcium-free Ringer's solution containing 20% rabbit serum which had been heated to 55° C. for 20 minutes. Ova with cumulus intact are removed and placed in calcium-free Ringer's solution for incubation at 37° C. Hyaluronidase (10 μl.) of a 10 mg./ml. solution in calcium-free Ringer's solution is added to 20 ova in 1 ml. of the incubation medium. To 10 ova in the same medium is added 10 μl. of a solution of sodium n-tetradecyl sulfate (10 mg./ml.) in calcium-free Ringer's solution. To 10 other ova in the same media is added 10 μl. of calcium-free Ringer's solution as control. The mixtures are incubated at 37° C., and the cumulus oophorus is examined at 15 minute intervals with an American Optical stereomicroscope. In the absence of sodium tetradecyl sulfate, the cumulus oophorus is completely removed.

[3] = Release from coated medicated dimethylpolysiloxane rods into water; type: physicochemical
Protocol: Dimethylpolysiloxane rubber rods (3 mm. diameter) containing 25% (W/W) sodium n-tetradecyl sulfate are prepared by the procedure described in Example 3, Method B. The rods are cut into one-inch pieces. A coating solution is prepared by dissolving 12.5 grams of dimethylpolysiloxane elastomer (DOW-Corning MDX-4-4210) in 37.5 ml of methylene chloride and then dissolving 1.88 grams of curing agent (Dow-Corning MDX-4-4210) therein. A straight pin is placed in the end of each one inch piece of rod. The piece of rod, held by the pin, is dipped into the above solution, and the rod is withdrawn from the solution and drained. The piece of rod is rotated as methylene chloride evaporates. The coated rods are placed in an oven at 120° C. for 10 minutes to cure the coating. The coated rods are then placed in a vacuum oven at 40° C. overnight to remove all methylene chloride. A second and third coat can be applied by the above method.
The release of sodium n-tetradecyl sulfate from the coated medicated rods, prepared as above-described, into water is shown in Table 10, below:
^(a) Weight of rods: 500 mg.; amount of water added: 10 ml.;
temperature: 37° C.; active compound determined by methylene blue

mice = settings: I.P. (mice); cited from earlier work

## CCCCCCCCCCCCCCOS(=O)(=O)[O-].[Na+] [n-tetradecyl, sodium n-tetradecyl sulfate]
[1]; Day 7
  Amount of sodium n-tetradecyl sulfate released Per day Calc.: 1.3 µg
[1]; Day 7, 10 ml water 37° C.
  Amount of sodium n-tetradecyl sulfate released Per 7 days: 9 µg
[1]; Day 14
  Amount of sodium n-tetradecyl sulfate released Per 7 days: 1.9 µg
  Amount of sodium n-tetradecyl sulfate released Per day Calc.: 0.3 µg
[1]; Day 21
  Amount of sodium n-tetradecyl sulfate released Per 7 days: 34.2 µg
  Amount of sodium n-tetradecyl sulfate released Per day Calc.: 4.9 µg
[1]; Day 28
  Amount of sodium n-tetradecyl sulfate released Per 7 days: 160 µg
  Amount of sodium n-tetradecyl sulfate released Per day Calc.: 22.8 µg
[1]; Day 35
  Amount of sodium n-tetradecyl sulfate released Per 7 days: 290 µg
  Amount of sodium n-tetradecyl sulfate released Per day Calc.: 41.4 µg
[1]; Day 42
  Amount of sodium n-tetradecyl sulfate released Per 7 days: 144 µg
  Amount of sodium n-tetradecyl sulfate released Per day Calc.: 20.6 µg
[1]; Day 49
  Amount of sodium n-tetradecyl sulfate released Per 7 days: 947 µg
  Amount of sodium n-tetradecyl sulfate released Per day Calc.: 135.3 µg
[1]; Day 56
  Amount of sodium n-tetradecyl sulfate released Per 7 days: 133 µg
  Amount of sodium n-tetradecyl sulfate released Per day Calc.: 19 µg
[1]; Day 63
  Amount of sodium n-tetradecyl sulfate released Per 7 days: 111 µg
  Amount of sodium n-tetradecyl sulfate released Per day Calc.: 16 µg
[1]; Day 70
  Amount of sodium n-tetradecyl sulfate released Per 7 days: 333 µg
  Amount of sodium n-tetradecyl sulfate released Per day Calc.: 47.5 µg
[1]; Day 77
  Amount of sodium n-tetradecyl sulfate released Per 7 days: 111 µg
  Amount of sodium n-tetradecyl sulfate released Per day Calc.: 16.0 µg
[1]; Day 84
  Amount of sodium n-tetradecyl sulfate released Per 7 days: 0 µg
  Amount of sodium n-tetradecyl sulfate released Per day Calc.: 0 µg
[1]; Day 91
  Amount of sodium n-tetradecyl sulfate released Per 7 days: 105 µg
  Amount of sodium n-tetradecyl sulfate released Per day Calc.: 15 µg
[1]; Day 98
  Amount of sodium n-tetradecyl sulfate released Per 7 days: 644 µg
  Amount of sodium n-tetradecyl sulfate released Per day Calc.: 92 µg
[1]; Day 105
  Amount of sodium n-tetradecyl sulfate released Per 7 days: 1477 µg
  Amount of sodium n-tetradecyl sulfate released Per day Calc.: 211 µg
[1]; Day 112
  Amount of sodium n-tetradecyl sulfate released Per 7 days: 430 µg
  Amount of sodium n-tetradecyl sulfate released Per day Calc.: 61.4 µg
[1]; Day 119
  Amount of sodium n-tetradecyl sulfate released Per 7 days: 600 µg
  Amount of sodium n-tetradecyl sulfate released Per day Calc.: 85.7 µg
[1]; Day 126
  Amount of sodium n-tetradecyl sulfate released Per 7 days: 1500 µg
  Amount of sodium n-tetradecyl sulfate released Per day Calc.: 214.3 µg
[1]; Day 133
  Amount of sodium n-tetradecyl sulfate released Per 7 days: 2600 µg
  Amount of sodium n-tetradecyl sulfate released Per day Calc.: 371 µg
[1]; Day 140
  Amount of sodium n-tetradecyl sulfate released Per 7 days: 4000 µg
  Amount of sodium n-tetradecyl sulfate released Per day Calc.: 571 µg
[1]; initial amount 34.14 mg.
  Percent of compound released after 140 days: 37%
  Total amount of compound released after 140 days: 12.63 mg
[2]
  state of cumulus oophorus in presence of hyaluronidase: remains substantially intact
[3]; 1 coat, Days 7, 500 mg rod, 25% W/W, 10 ml water 37° C.
  Amount of sodium n-tetradecyl sulfate released (mg. per 7 days): 0 mg. per 7 days
[3]; 1 coat, Days 14
  Amount of sodium n-tetradecyl sulfate released (mg. per 7 days): 0.14 mg. per 7 days
[3]; 1 coat, Days 21
  Amount of sodium n-tetradecyl sulfate released (mg. per 7 days): 77.4 mg. per 7 days
[3]; 1 coat, Days 28
  Amount of sodium n-tetradecyl sulfate released (mg. per 7 days): 414.0 mg. per 7 days
[3]; 1 coat, Days 35
  Amount of sodium n-tetradecyl sulfate released (mg. per 7 days): 128.0 mg. per 7 days
[3]; 1 coat, Days 42
  Amount of sodium n-tetradecyl sulfate released (mg. per 7 days): 586.0 mg. per 7 days
[3]; 1 coat, Days 49
  Amount of sodium n-tetradecyl sulfate released (mg. per 7 days): 370.0 mg. per 7 days
[3]; 1 coat, Days 56
  Amount of sodium n-tetradecyl sulfate released (mg. per 7 days): 524.0 mg. per 7 days
[3]; 1 coat, Days 63
  Amount of sodium n-tetradecyl sulfate released (mg. per 7 days): 571.0 mg. per 7 days
[3]; 1 coat, Days 70
  Amount of sodium n-tetradecyl sulfate released (mg. per 7 days): 524.0 mg. per 7 days
[3]; 1 coat, Days 77
  Amount of sodium n-tetradecyl sulfate released (mg. per 7 days): 471.0 mg. per 7 days
[3]; 1 coat, Days 84
  Amount of sodium n-tetradecyl sulfate released (mg. per 7 days): 386.0 mg. per 7 days
[3]; 1 coat, Days 91
  Amount of sodium n-tetradecyl sulfate released (mg. per 7 days): 330.0 mg. per 7 days
[3]; 1 coat, Days 98
  Amount of sodium n-tetradecyl sulfate released (mg. per 7 days): 349.0 mg. per 7 days
[3]; 1 coat, Days 105
  Amount of sodium n-tetradecyl sulfate released (mg. per 7 days): 240.0 mg. per 7 days
[3]; 1 coat, Days 112
  Amount of sodium n-tetradecyl sulfate released (mg. per 7 days): 329.0 mg. per 7 days
[3]; 1 coat, Days 119
  Amount of sodium n-tetradecyl sulfate released (mg. per 7 days): 286.0 mg. per 7 days
[3]; 1 coat, Days 126
  Amount of sodium n-tetradecyl sulfate released (mg. per 7 days): 430.0 mg. per 7 days
[3]; 2 coat, Days 7
  Amount of sodium n-tetradecyl sulfate released (mg. per 7 days): 0 mg. per 7 days
[3]; 2 coat, Days 14
  Amount of sodium n-tetradecyl sulfate released (mg. per 7 days): 0 mg. per 7 days
[3]; 2 coat, Days 21
  Amount of sodium n-tetradecyl sulfate released (mg. per 7 days): .03 mg. per 7 days
[3]; 2 coat, Days 28
  Amount of sodium n-tetradecyl sulfate released (mg. per 7 days): 628.0 mg. per 7 days
[3]; 2 coat, Days 35
  Amount of sodium n-tetradecyl sulfate released (mg. per 7 days): 124.0 mg. per 7 days
[3]; 2 coat, Days 42
  Amount of sodium n-tetradecyl sulfate released (mg. per 7 days): 96.0 mg. per 7 days
[3]; 2 coat, Days 49
  Amount of sodium n-tetradecyl sulfate released (mg. per 7 days): 186.0 mg. per 7 days
[3]; 2 coat, Days 56
  Amount of sodium n-tetradecyl sulfate released (mg. per 7 days): 135.0 mg. per 7 days
[3]; 2 coat, Days 63
  Amount of sodium n-tetradecyl sulfate released (mg. per 7 days): 183.0 mg. per 7 days
[3]; 2 coat, Days 70
  Amount of sodium n-tetradecyl sulfate released (mg. per 7 days): 174.0 mg. per 7 days
[3]; 2 coat, Days 77
  Amount of sodium n-tetradecyl sulfate released (mg. per 7 days): 229.0 mg. per 7 days
[3]; 2 coat, Days 84
  Amount of sodium n-tetradecyl sulfate released (mg. per 7 days): 170.0 mg. per 7 days
[3]; 2 coat, Days 91
  Amount of sodium n-tetradecyl sulfate released (mg. per 7 days): 200.0 mg. per 7 days
[3]; 2 coat, Days 98
  Amount of sodium n-tetradecyl sulfate released (mg. per 7 days): 190.0 mg. per 7 days
[3]; 2 coat, Days 105
  Amount of sodium n-tetradecyl sulfate released (mg. per 7 days): 224.0 mg. per 7 days
[3]; 2 coat, Days 112
  Amount of sodium n-tetradecyl sulfate released (mg. per 7 days): 121.0 mg. per 7 days
[3]; 2 coat, Days 119
  Amount of sodium n-tetradecyl sulfate released (mg. per 7 days): 100.0 mg. per 7 days
[3]; 2 coat, Days 126
  Amount of sodium n-tetradecyl sulfate released (mg. per 7 days): 92.0 mg. per 7 days
[3]; 3 coat, Days 7
  Amount of sodium n-tetradecyl sulfate released (mg. per 7 days): 0 mg. per 7 days
[3]; 3 coat, Days 14
  Amount of sodium n-tetradecyl sulfate released (mg. per 7 days): .02 mg. per 7 days
[3]; 3 coat, Days 21
  Amount of sodium n-tetradecyl sulfate released (mg. per 7 days): 0 mg. per 7 days
[3]; 3 coat, Days 28
  Amount of sodium n-tetradecyl sulfate released (mg. per 7 days): 10.0 mg. per 7 days
[3]; 3 coat, Days 35
  Amount of sodium n-tetradecyl sulfate released (mg. per 7 days): 142.0 mg. per 7 days
[3]; 3 coat, Days 42
  Amount of sodium n-tetradecyl sulfate released (mg. per 7 days): 0 mg. per 7 days
[3]; 3 coat, Days 49
  Amount of sodium n-tetradecyl sulfate released (mg. per 7 days): 186.0 mg. per 7 days
[3]; 3 coat, Days 56
  Amount of sodium n-tetradecyl sulfate released (mg. per 7 days): 143.0 mg. per 7 days
[3]; 3 coat, Days 63
  Amount of sodium n-tetradecyl sulfate released (mg. per 7 days): 194.0 mg. per 7 days
[3]; 3 coat, Days 70
  Amount of sodium n-tetradecyl sulfate released (mg. per 7 days): 174.0 mg. per 7 days
[3]; 3 coat, Days 77
  Amount of sodium n-tetradecyl sulfate released (mg. per 7 days): 157.0 mg. per 7 days
[3]; 3 coat, Days 84
  Amount of sodium n-tetradecyl sulfate released (mg. per 7 days): 160.0 mg. per 7 days
[3]; 3 coat, Days 91
  Amount of sodium n-tetradecyl sulfate released (mg. per 7 days): 140.0 mg. per 7 days
[3]; 3 coat, Days 98
  Amount of sodium n-tetradecyl sulfate released (mg. per 7 days): 159.0 mg. per 7 days
[3]; 3 coat, Days 105
  Amount of sodium n-tetradecyl sulfate released (mg. per 7 days): 196.0 mg. per 7 days
[3]; 3 coat, Days 112
  Amount of sodium n-tetradecyl sulfate released (mg. per 7 days): 157.0 mg. per 7 days
[3]; 3 coat, Days 119
  Amount of sodium n-tetradecyl sulfate released (mg. per 7 days): 150.0 mg. per 7 days
[3]; 3 coat, Days 126
  Amount of sodium n-tetradecyl sulfate released (mg. per 7 days): 156.0 mg. per 7 days
mice
  LD50: 342 mg/kg
